Source: ChEMBL document CHEMBL6096682, “Discovery of D-Ring-Contracted Artemisinin as a Potent Hydrophobic Tag for Targeted Protein Degradation” (J Med Chem, 2025)
Active and inactive are the calls of the source. The rule behind the calls is not given here.

Assays:
[1] = biological target: T1, Estrogen receptor (Homo sapiens) (UniProt P03372); assay: HyT degrader activity at ER-alpha in human MCF7 cells assessed as induction of ER-alpha degradation at 10 uM incubated for 24 hrs by western blot analysis; format: cell-based
T1 sequence (whole entry): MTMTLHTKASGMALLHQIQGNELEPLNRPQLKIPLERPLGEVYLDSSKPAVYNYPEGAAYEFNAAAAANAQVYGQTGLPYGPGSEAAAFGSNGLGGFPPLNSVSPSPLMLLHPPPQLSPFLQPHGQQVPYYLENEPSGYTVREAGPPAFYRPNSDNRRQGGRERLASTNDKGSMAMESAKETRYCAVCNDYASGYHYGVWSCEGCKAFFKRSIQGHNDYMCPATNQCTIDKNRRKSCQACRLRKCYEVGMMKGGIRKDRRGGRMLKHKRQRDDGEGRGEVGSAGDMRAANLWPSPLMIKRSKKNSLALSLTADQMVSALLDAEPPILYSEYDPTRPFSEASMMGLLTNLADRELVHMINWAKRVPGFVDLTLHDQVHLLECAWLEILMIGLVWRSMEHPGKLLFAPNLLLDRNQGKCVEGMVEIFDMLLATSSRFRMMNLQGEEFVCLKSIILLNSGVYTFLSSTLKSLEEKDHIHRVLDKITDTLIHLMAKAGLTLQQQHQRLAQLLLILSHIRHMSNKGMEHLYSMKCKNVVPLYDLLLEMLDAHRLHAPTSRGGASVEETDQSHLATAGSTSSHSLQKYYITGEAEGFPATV

[2] = biological target: T1, Estrogen receptor (Homo sapiens); assay: HyT degrader activity at ER-alpha in human MCF7 cells assessed as induction of ER-alpha degradation incubated for 24 hrs by western blot analysis; format: cell-based; conditions: dose 0.01-100 µM
[3] = biological target: T1, Estrogen receptor (Homo sapiens); assay: HyT degrader activity at ER-alpha in human MCF7 cells assessed as induction of ER-alpha degradation by measuring decrease in ER-alpha level at 10 uM incubated for 48 hrs by western blot analysis; format: cell-based; parameters: scale not given: the % may be the effect or the level left
[4] = biological target: T1, Estrogen receptor (Homo sapiens); assay: HyT degrader activity at ER-alpha in human MCF7 cells assessed as induction of ER-alpha degradation by measuring decrease in ER-alpha level at 10 uM incubated for 72 hrs by western blot analysis; format: cell-based
[5] = biological target: T1, Estrogen receptor (Homo sapiens); assay: HyT degrader activity at ER-alpha in human MCF7 cells assessed as induction of ER-alpha degradation by measuring decrease in ER-alpha level at 10 uM incubated for 48 hrs followed by drug wash-out and measured after 48 hrs by western blot analysis; format: cell-based
[6] = biological target: T1, Estrogen receptor (Homo sapiens); assay: HyT degrader activity at ER-alpha in human MCF7 cells assessed as induction of ER-alpha degradation by measuring decrease in ER-alpha level at 10 uM incubated for 48 hrs followed by drug wash-out and measured after 72 hrs by western blot analysis; format: cell-based
[7] = biological target: T1, Estrogen receptor (Homo sapiens); assay: HyT degrader activity at ER-alpha in human T47D cells assessed as induction of ER-alpha degradation by measuring downregulation of ER-alpha level at 1 to 5 uM incubated for 24 hrs by immunoblot analysis; format: cell-based; conditions: dose 1-5 µM
[8] = biological target: T1, Estrogen receptor (Homo sapiens); assay: HyT degrader activity at ER-alpha in human MCF7 cells assessed as induction of ER-alpha degradation by measuring decrease in ER-alpha level at 10 uM pretreated with HSP90 inhibitor, 17-AAG for 2 hrs followed by incubation with compound for 12 hrs by immunoblot analysis; format: cell-based
[9] = biological target: T1, Estrogen receptor (Homo sapiens); assay: HyT degrader activity at ER-alpha in human MCF7 cells assessed as induction of ER-alpha degradation by measuring residual ER-alpha level at 10 uM pretreated with HSP70 inhibitor, VER-155008 and HSP90 inhibitor, 17-AAG for 2 hrs followed by incubation with compound for 12 hrs by immunoblot analysis; format: cell-based
[10] = biological target: T1, Estrogen receptor (Homo sapiens); assay: HyT degrader activity at ER-alpha in human MCF7 cells assessed as induction of ER-alpha degradation by measuring decrease in ER-alpha level at 10 uM pretreated with 26S proteasome inhibitor, MG-132 for 2 hrs followed by incubation with compound for 12 hrs by immunoblot analysis; format: cell-based
MCF7 [11] = assay: Antiproliferative activity against human MCF7 cells assessed as reduction in cell viability incubated for 48 hrs by MTT assay; format: functional, cell-based; conditions: MCF7, 48 h
MCF7 [12] = assay: Antiproliferative activity against human MCF7 cells assessed as reduction in cell viability incubated for 48 hrs by MTT assay relative to control; format: functional
MCF7 [13] = assay: Antiproliferative activity against human MCF7 cells overexpressing EGFR assessed as reduction in cell viability incubated for 48 hrs by MTT assay; format: functional, cell-based; conditions: MCF7, 48 h
[14] = biological target: T1, Estrogen receptor (Homo sapiens); assay: Binding affinity to ER-alpha in human MCF7 cells assessed as increase in thermal stability of protein at 100 uM incubated for 1 hr followed by exposure to heat at 25 to 66 degC for 3 mins and incubation for 3 mins at room temperature by thermal shift binding assay; format: cell-based; conditions: time 66.0 min
MCF7 [15] = assay: Antitumor activity against human MCF7 cells xenografted in Balb/c mouse assessed as inhibition of tumor growth at 5 mg/kg, iv administered every 3 days and measured for 21 days; format: functional; conditions: MCF7, 504 h, time 21 day, read-out: TGI
MCF7 [16] = assay: Antitumor activity against human MCF7 cells xenografted in Balb/c mouse assessed as inhibition of tumor growth at 10 mg/kg, iv administered every 3 days and measured for 21 days; format: functional; conditions: MCF7, 504 h, time 21 day, read-out: TGI
MCF7 [17] = assay: Antitumor activity against human MCF7 cells xenografted in Balb/c mouse assessed as reduction in tumor weight at 5 to 10 mg/kg, iv administered every 3 days and measured on day 21; format: functional, organism-based; conditions: dose 5-10 mg/kg, time 21.0 day
MCF7 [18] = assay: Antitumor activity against human MCF7 cells xenografted in Balb/c mouse assessed as tumor tissue damage at 10 mg/kg, iv administered every 3 days and measured on day 21 by Hematoxylin-Eosin staining based analysis; format: functional, organism-based; conditions: time 21.0 day
[19] = Toxicity in Balb/c mouse xenografted with human MCF7 cells assessed as effect on lymphocytes count at 5 to 10 mg/kg, iv measured after 24 hrs; format: organism-based; conditions: in vivo, dose 5-10 mg/kg
[20] = Toxicity in Balb/c mouse xenografted with human MCF7 cells assessed as effect on red blood cells count at 5 to 10 mg/kg, iv measured after 24 hrs; format: organism-based; conditions: in vivo, dose 5-10 mg/kg
[21] = Toxicity in Balb/c mouse xenografted with human MCF7 cells assessed as effect on hematocrit level at 5 to 10 mg/kg, iv measured after 24 hrs; format: organism-based; conditions: in vivo, dose 5-10 mg/kg
[22] = Nephrotoxicity in Balb/c mouse xenografted with human MCF7 cells assessed as effect on blood urea nitrogen level in serum at 5 to 10 mg/kg, iv measured after 24 hrs; format: toxicity, organism-based; conditions: in vivo, dose 5-10 mg/kg
[23] = Nephrotoxicity in Balb/c mouse xenografted with human MCF7 cells assessed as effect on creatinine level in serum at 5 to 10 mg/kg, iv measured after 24 hrs; format: toxicity, organism-based; conditions: in vivo, dose 5-10 mg/kg
[24] = Toxicity in Balb/c mouse xenografted with human MCF7 cells assessed as effect on heart morphological changes at 5 to 10 mg/kg, iv measured after 24 hrs by Hematoxylin-Eosin staining based analysis; format: organism-based; conditions: in vivo, dose 5-10 mg/kg
[25] = Toxicity in Balb/c mouse xenografted with human MCF7 cells assessed as effect on liver morphological changes at 5 to 10 mg/kg, iv measured after 24 hrs by Hematoxylin-Eosin staining based analysis; format: organism-based; conditions: in vivo, dose 5-10 mg/kg
[26] = Toxicity in Balb/c mouse xenografted with human MCF7 cells assessed as effect on lungs morphological changes at 5 to 10 mg/kg, iv measured after 24 hrs by Hematoxylin-Eosin staining based analysis; format: organism-based; conditions: in vivo, dose 5-10 mg/kg

C[C@@H]1CCC2[C@]34OO[C@](C)(CCC13)O[C@@H]4O[C@]2(C)C(=O)NCCCOc1ccc(C(=O)c2c(-c3ccc(O)cc3)sc3cc(O)ccc23)cc1 (stereo partly specified)
Activity [1]: 83.1% | Activity [2]: Dose-dependent-effect | Activity [3]: > 99% | Activity [4]: Active | Activity [5]: Active | Activity [6]: inactive | Activity [7]: Active | Activity [8]: inactive | Activity [9]: 91% | Activity [10]: inactive | IC50 (MCF7 [11]): 2.28 µM | inhibition (INH) (MCF7 [12]): 73.5% | IC50 (MCF7 [13]): 4.65 µM | Activity [14]: Active | inhibition in vivo at 5 mg/kg (MCF7 [15]): 93.3% | inhibition in vivo at 10 mg/kg (MCF7 [16]): 112% | Activity (MCF7 [17]): Active | Activity (MCF7 [18]): Active | Activity [19]: Non-toxic | Activity [20]: Non-toxic | Activity [21]: Non-toxic | Activity [22]: Non-toxic | Activity [23]: Non-toxic | Activity [24]: Non-toxic | Activity [25]: Non-toxic | Activity [26]: Non-toxic
